Laboratory results reported in patent publication US5908852A, “1,3,5 trisubstituted pyrazole compounds for treatment of inflammation” (G. D. Searle & Co., priority 1996, dated 1999).

Tests used:
Human COX I = Human COX I (Homo sapiens, UniProt P23219); test: biochemical; settings: recombinant enzyme, CHAPS-solubilized insect cell membranes; arachidonic acid 10 μM; pre-incubation 10-20 minutes; pH 8.0; read-out: Human COX I ID50
Description: (§1) Recombinant baculoviruses were isolated by transfecting 4 μg of baculovirus transfer vector DNA into SF9 insect cells ([…]) along with 200 ng of linearized baculovirus plasmid DNA by the calcium phosphate method. See M. D. Summers and G. E. Smith, A Manual of Methods for Baculovirus Vectors and Insect Cell Culture Procedures, Texas Agric. Exp. Station Bull. […] Recombinant viruses were purified by three rounds of plaque purification and high titer (10E7-10E8 pfu/ml) stocks of virus were prepared. For large scale production, SF9 insect cells were infected in 10 liter fermentors (0.5×10^6 /ml) with the recombinant baculovirus stock such that the multiplicity of infection was 0.1. After 72 hours the cells were centrifuged and the cell pellet homogenized in Tris/Sucrose (50 mM: 25%, pH 8.0) containing 1% 3-[(3-cholamidopropyl)dimethylammonio]-1-propanesulfonate (CHAPS). The homogenate was centrifuged at 10,000×G for 30 minutes, and the resultant supernatant was stored at -80° C. before being assayed for COX activity.
COX activity was assayed as PGE2 formed/μg protein/time using an ELISA to detect the prostaglandin released. CHAPS-solubilized insect cell membranes containing the appropriate COX enzyme were incubated in a potassium phosphate buffer (50 mM, pH 8.0) containing epinephrine, phenol, and heme with the addition of arachidonic acid (10 μM). Compounds were pre-incubated with the enzyme for 10-20 minutes prior to the addition of arachidonic acid. […] The PGE2 formed was measured by standard ELISA technology (Cayman Chemical).

Human COX II = biological target: T1, Human COX II (Homo sapiens, UniProt P35354); test: COX II activity in vitro (PGE2 formed, ELISA); type: biochemical; settings: recombinant enzyme, CHAPS-solubilized insect cell membranes; arachidonic acid 10 μM; pre-incubation 10-20 minutes; pH 8.0; read-out: Human COX II ID50
T1 construct: A 2.0 kb fragment containing the coding region of either human or murine COX-I or human or murine COX-II was cloned; made in house; host or cells: SF9 insect cells infected with recombinant baculovirus (transfer vector pVL1393); CHAPS-solubilized preparation
T1 sequence (P35354 18-604): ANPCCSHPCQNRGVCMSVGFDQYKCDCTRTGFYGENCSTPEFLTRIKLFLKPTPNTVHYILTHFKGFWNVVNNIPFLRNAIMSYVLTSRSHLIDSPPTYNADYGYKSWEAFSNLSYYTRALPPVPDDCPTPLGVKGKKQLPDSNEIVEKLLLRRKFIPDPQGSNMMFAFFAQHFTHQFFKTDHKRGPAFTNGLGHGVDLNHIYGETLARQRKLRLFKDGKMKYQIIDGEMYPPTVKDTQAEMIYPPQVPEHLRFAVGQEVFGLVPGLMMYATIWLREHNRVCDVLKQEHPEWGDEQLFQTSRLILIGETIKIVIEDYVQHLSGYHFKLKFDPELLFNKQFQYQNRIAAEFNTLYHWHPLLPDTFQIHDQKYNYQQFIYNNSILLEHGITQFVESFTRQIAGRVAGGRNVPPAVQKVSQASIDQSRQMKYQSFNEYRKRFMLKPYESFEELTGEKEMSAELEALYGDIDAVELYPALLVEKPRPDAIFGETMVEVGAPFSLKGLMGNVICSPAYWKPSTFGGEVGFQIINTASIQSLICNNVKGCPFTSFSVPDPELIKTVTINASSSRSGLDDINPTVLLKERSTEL
Description: as §1
COX activity was assayed as PGE2 formed/μg protein/time using an ELISA to detect the prostaglandin released. […] The PGE2 formed was measured by standard ELISA technology (Cayman Chemical).

Chain of Human COX I (P23219 24-599): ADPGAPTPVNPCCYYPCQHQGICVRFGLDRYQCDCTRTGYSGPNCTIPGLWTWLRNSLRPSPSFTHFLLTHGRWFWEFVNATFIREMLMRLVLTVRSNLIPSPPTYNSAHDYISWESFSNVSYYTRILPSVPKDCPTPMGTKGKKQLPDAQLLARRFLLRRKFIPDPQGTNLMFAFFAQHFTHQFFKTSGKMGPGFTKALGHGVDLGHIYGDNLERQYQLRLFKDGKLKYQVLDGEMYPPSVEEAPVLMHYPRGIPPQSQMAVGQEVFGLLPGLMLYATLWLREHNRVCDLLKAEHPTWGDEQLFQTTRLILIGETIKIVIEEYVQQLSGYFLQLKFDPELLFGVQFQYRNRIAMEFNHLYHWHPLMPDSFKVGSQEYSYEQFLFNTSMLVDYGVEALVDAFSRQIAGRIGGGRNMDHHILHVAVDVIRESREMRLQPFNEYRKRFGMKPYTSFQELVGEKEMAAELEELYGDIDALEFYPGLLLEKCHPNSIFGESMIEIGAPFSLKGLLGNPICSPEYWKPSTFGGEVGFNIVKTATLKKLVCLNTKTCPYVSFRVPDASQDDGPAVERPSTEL

## Cc1ccc(-c2cc(-c3ccc(C)cc3)n(-c3ccc(S(N)(=O)=O)cc3)n2)cc1 [Example 2a, 4-(3,5-bis(4-methylphenyl)-1H-pyrazol-1-yl)benzenesulfonamide]
Human COX I
  IC50: 13.6 µM

## NS(=O)(=O)c1ccc(-n2nc(-c3ccccc3)cc2-c2ccc(Cl)cc2)cc1 [Example 2b, 4-(5-(4-chlorophenyl)-3-phenyl-1H-pyrazol-1-yl)benzenesulfonamide]
Human COX I
  IC50: 19.1 µM

## COc1ccc(-c2cc(-c3ccc(OC)cc3)n(-c3ccc(S(N)(=O)=O)cc3)n2)cc1 [Example 2c, 4-(3,5-bis(4-methoxyphenyl)-1H-pyrazol-1-yl)benzenesulfonamide]
Human COX II
  IC50: 0.5 µM
Human COX I
  IC50: 2.1 µM

## Cc1ccc(-c2cc(-c3ccc(Cl)cc3)n(-c3ccc(S(N)(=O)=O)cc3)n2)cc1 [Example 2d, 4-(5-(4-chlorophenyl)-3-(4-methylphenyl)-1H-pyrazol-1-yl)benzenesulfonamide]
Human COX I
  IC50: 12.7 µM

## NS(=O)(=O)c1ccc(-n2nc(-c3ccc([N+](=O)[O-])cc3)cc2-c2ccc(Cl)cc2)cc1 [Example 2e, 4-(5-(4-chlorophenyl)-3-(4-nitrophenyl)-1H-pyrazol-1-yl)benzenesulfonamide]
Human COX II
  IC50: 0.7 µM
Human COX I
  IC50: > 100 µM
